According to ChEMBL document CHEMBL3396966, “In vitro studies of antimicrobial activity of Gly-His-Lys conjugates as potential and promising candidates for therapeutics in skin and tissue infections” (2015):
Values after ≈ are worked out from the molar mass of the structure shown. Active and inactive are the calls of the source. No cut-off for these calls is given here. Non-standard residues stand in square brackets, D forms with d. Residues, ends and D or L forms follow the SMILES beside them. ξ: configuration not given here. *: point of attachment. Stearoyl = CCCCCCCCCCCCCCCCCC(=O)*; Palmitoyl = CCCCCCCCCCCCCCCC(=O)*; Lauroyl = CCCCCCCCCCCC(=O)*; ξHyp = O=C(O)C1CC(O)CN1

Columns and labels:
[1] = system: Escherichia coli; assay: Antimicrobial activity against Escherichia coli after 16 to 20 hrs by broth micro-dilution method; assay type: functional, organism-based
[2] = system: Staphylococcus aureus; assay: Antimicrobial activity against Staphylococcus aureus after 16 to 20 hrs by broth micro-dilution method; assay type: functional, organism-based
[3] = system: Staphylococcus aureus; assay: Bacteriostatic activity against Staphylococcus aureus after 16 to 20 hrs by broth micro-dilution method; assay type: functional, organism-based
[4] = system: Pseudomonas aeruginosa; assay: Bacteriostatic activity against Pseudomonas aeruginosa PCM 2562 (ATCC9027) after 16 to 20 hrs by broth micro-dilution method; assay type: functional, organism-based
[5] = system: Candida albicans; assay: Fungicidal activity against Candida albicans by time-kill assay; assay type: functional, organism-based
[6] = system: Candida albicans; assay: Antifungal activity against Candida albicans after 16 to 20 hrs by broth micro-dilution method; assay type: functional, organism-based
[7] = system: Candida albicans; assay: Fungicidal activity against Candida albicans at 2 times MIC by time-kill assay; assay type: functional, organism-based
[8] = system: Candida albicans; assay: Fungicidal activity against Candida albicans at 2 to 4 times MIC by time-kill assay; assay type: functional, organism-based
[9] = system: Staphylococcus aureus; assay: Bactericidal activity against Staphylococcus aureus at 8 times MIC up to 18 hrs by time-kill assay; assay type: functional, organism-based
[10] = system: Escherichia coli; assay: Bactericidal activity against Escherichia coli up to 18 hrs by time-kill assay; assay type: functional, organism-based
[11] = system: Staphylococcus aureus; assay: Bactericidal activity against Staphylococcus aureus at 0.5 to 1 times MIC up to 18 hrs by time-kill assay; assay type: functional, organism-based
[12] = system: Staphylococcus aureus; assay: Bactericidal activity against Staphylococcus aureus at 4 times MIC up to 18 hrs by time-kill assay
[13] = system: Staphylococcus aureus; assay: Bactericidal activity against Staphylococcus aureus up to 4 times MIC up to 18 hrs by time-kill assay; assay type: functional, organism-based
[14] = system: Staphylococcus aureus; assay: Bactericidal activity against Staphylococcus aureus after 16 to 20 hrs by broth micro-dilution method; assay type: functional, organism-based
[15] = system: Pseudomonas aeruginosa; assay: Bactericidal activity against Pseudomonas aeruginosa PCM 2562 (ATCC9027) after 4 hrs by broth micro-dilution method; assay type: functional, organism-based
[16] = system: Pseudomonas aeruginosa; assay: Bactericidal activity against Pseudomonas aeruginosa PCM 2562 (ATCC9027) after 16 to 20 hrs by broth micro-dilution method; assay type: functional, organism-based
[17] = system: Pseudomonas aeruginosa; assay: Bactericidal activity against Pseudomonas aeruginosa PCM 2562 (ATCC9027) after 18 hrs by broth micro-dilution method; assay type: functional, organism-based
[18] = system: Staphylococcus aureus; assay: Bactericidal activity against Staphylococcus aureus at 8 times MIC after 18 hrs by time-kill assay; assay type: functional, organism-based
[19] = system: Staphylococcus aureus; assay: Bactericidal activity against Staphylococcus aureus at 4 times MIC up to 18 hrs by time-kill assay; assay type: functional, organism-based
[20] = system: Pseudomonas aeruginosa; assay: Bactericidal activity against Pseudomonas aeruginosa PCM 2562 (ATCC9027) at 4 times MIC up to 18 hrs by broth micro-dilution method; assay type: functional, organism-based
[21] = system: Staphylococcus aureus; assay: Bactericidal activity against Staphylococcus aureus at 6 times MIC up to 18 hrs by time-kill assay; assay type: functional, organism-based
[22] = system: Pseudomonas aeruginosa; assay: Antimicrobial activity against Pseudomonas aeruginosa PCM 2562 (ATCC9027) after 16 to 20 hrs by broth micro-dilution method; assay type: functional
[23] = system: Candida albicans; assay: Fungicidal activity against Candida albicans at MIC by time-kill assay; assay type: functional, organism-based
[24] = system: Staphylococcus aureus; assay: Antimicrobial activity against Staphylococcus aureus PCM 2602 (ATCC 6538) after 16 to 20 hrs by broth micro-dilution method; assay type: functional
[25] = system: Escherichia coli; assay: Antimicrobial activity against Escherichia coli DSM11250 (PCM2560, NTCC 10538) after 16 to 20 hrs by broth micro-dilution method; assay type: functional
[26] = system: Escherichia coli; assay: Antimicrobial activity against Escherichia coli PCM 2561 (ATCC 8739, DSM 1576) after 16 to 20 hrs by broth micro-dilution method; assay type: functional
[27] = system: Staphylococcus aureus; assay: Bactericidal activity against Staphylococcus aureus at 100 ug/ml up to 18 hrs by time-kill assay; assay type: functional, organism-based
[28] = system: Staphylococcus aureus; assay: Antimicrobial activity against Staphylococcus aureus PCM 2054 (ATCC 25923) after 16 to 20 hrs by broth micro-dilution method; assay type: functional
[29] = system: Candida albicans; assay: Fungicidal activity against Candida albicans at 250 ug/ml by time-kill assay; assay type: functional, organism-based
[30] = system: Candida albicans; assay: Fungicidal activity against Candida albicans at 8 times MIC after 4 hrs by time-kill assay; assay type: functional, organism-based
[31] = system: Candida albicans; assay: Fungicidal activity against Candida albicans at 4 to 8 times MIC after 4 hrs by time-kill assay; assay type: functional, organism-based
[32] = system: Staphylococcus aureus; assay: Bactericidal activity against Staphylococcus aureus at 0.5 to 1 time MIC up to 18 hrs by time-kill assay; assay type: functional, organism-based
[33] = system: Staphylococcus aureus; assay: Bactericidal activity against Staphylococcus aureus at 1 to 4 times MIC up to 18 hrs by time-kill assay; assay type: functional, organism-based
[34] = Pseudomonas aeruginosa, PCM 2562 (ATCC9027)
[35] = Staphylococcus aureus, PCM 2602 (ATCC 6538)
[36] = Escherichia coli, DSM11250 (PCM2560, NTCC 10538)
[37] = Escherichia coli, PCM 2561 (ATCC 8739, DSM 1576)
[38] = Staphylococcus aureus, PCM 2054 (ATCC 25923)

## NCCCC[C@H](NC(=O)C1CC(O)CN1C(=O)CN)C(=O)O (some centres undefined) (H-Gly-[ξHyp]-Lys-OH)
[1]
  Activity: Active
[2]
  Activity: Active
[3]
  Activity: Active
[4]
  Activity: Active

## NCCCC[C@H](NC(=O)[C@H](Cc1cnc[nH]1)NC(=O)CN)C(=O)O (H-Gly-His-Lys-OH)
[1]
  Activity: Active
[2]
  Activity: Active
[3]
  Activity: Active
[4]
  Activity: Active

## NYSTATIN
[5]
  Activity: Active
[6]
  MFC: 7.8 µg/mL
  MFC50: 1.9 µg/mL
  MFC90: 7.8 µg/mL
  MIC50: 1.9 µg/mL
  MIC90: 3.9 µg/mL

## CCCCCCCCCCCCCCCCCC(=O)NCC(=O)NCC(=O)N1CC(O)CC1C(=O)N[C@@H](CCCCN)C(=O)O (some centres undefined) (Stearoyl-GG[ξHyp]K-OH)
[7]
  Activity: Active
[8]
  Activity: Active

## CCCCCCCCCCCC(=O)NCC(=O)N1CC(O)CC1C(=O)N[C@@H](CCSC)C(=O)N[C@@H](CCCCN)C(=O)O (some centres undefined) (Lauroyl-G[ξHyp]MK-OH)
[9]
  Activity: Active

## CC(=O)NCC(=O)NCC(=O)N1CC(O)CC1C(=O)N[C@@H](CCCCN)C(=O)O (some centres undefined) (Ac-GG[ξHyp]K-OH)
[10]
  Activity: Active

## CSCC[C@H](NC(=O)CN)C(=O)N[C@@H](CCCCN)C(=O)O (H-Gly-Met-Lys-OH)
[1]
  Activity: inactive
[10]
  Activity: Active

## CCCCCCCCCCCC(=O)NCC(=O)NCC(=O)N1CC(O)CC1C(=O)N[C@@H](CCCCN)C(=O)O (some centres undefined) (Lauroyl-GG[ξHyp]K-OH)
[10]
  Activity: Active
[11]
  Activity: Active

## CCCCCCCCCCCC(=O)NCC(=O)N1CC(O)CC1C(=O)N[C@H](CCCCN)C(=O)O (some centres undefined)
[12]
  Activity: Active
[1]
  Activity: Active
[10]
  Activity: Active
[13]
  Activity: Active

## CCCCCCCCCCCC(=O)NCC(=O)N1CC(O)CC1C(=O)N[C@@H](CCCCN)C(=O)O (some centres undefined)
[14]
  Activity: Active
[1]
  Activity: Active
[15]
  Activity: Active
[16]
  Activity: Active
[10]
  Activity: Active
[3]
  Activity: Active
[17]
  Activity: Active
[18]
  Activity: Active
[4]
  Activity: Active

## CC(=O)NCC(=O)N1CC(O)CC1C(=O)N[C@H](CCCCN)C(=O)O (some centres undefined)
[1]
  Activity: Active

## CCCCCCCCCCCCCCCC(=O)NCC(=O)N1CC(O)CC1C(=O)N[C@@H](CCCCN)C(N)=O (some centres undefined) (Palmitoyl-Gly-[ξHyp]-Lys-NH2)
[19]
  Activity: Active
[7]
  Activity: Active
[20]
  Activity: Active
[21]
  Activity: Active
[22]
  MBC50: 1500 µg/mL (≈ 2710 µM)
  MBC90: 2000 µg/mL (≈ 3610 µM)
[22]; [34]
  MIC50: 375 µg/mL (≈ 677 µM)
  MIC90: 500 µg/mL (≈ 903 µM)
[23]
  Activity: Active
[24]
  MBC50: 93.7 µg/mL (≈ 169 µM)
  MBC90: 125 µg/mL (≈ 226 µM)
[24]; [35]
  MIC50: 31.3 µg/mL (≈ 56.5 µM)
  MIC90: 31.3 µg/mL (≈ 56.5 µM)
[25]; [36]
  MIC50: 31.3 µg/mL (≈ 56.5 µM)
  MIC90: 62.5 µg/mL (≈ 113 µM)
[26]; [37]
  MIC50: 62.5 µg/mL (≈ 113 µM)
  MIC90: 125 µg/mL (≈ 226 µM)
[27]
  Activity: Active
[28]
  MBC50: 93.7 µg/mL (≈ 169 µM)
  MBC90: 125 µg/mL (≈ 226 µM)
[28]; [38]
  MIC50: 31.3 µg/mL (≈ 56.5 µM)
  MIC90: 62.5 µg/mL (≈ 113 µM)

## CCCCCCCCCCCCCCCCCC(=O)NCC(=O)N1CC(O)CC1C(=O)N[C@H](CCCCN)C(=O)O (some centres undefined)
[10]
  Activity: Active

## CN(C)[C@@H]1C(O)=C(C(N)=O)C(=O)[C@@]2(O)C(O)=C3C(=O)c4c(O)cccc4[C@@](C)(O)[C@H]3C[C@@H]12 [TETRACYCLINE]
[22]
  MBC50: 31.3 µg/mL (≈ 70.4 µM)
  MBC90: 62.5 µg/mL (≈ 141 µM)
[22]; [34]
  MBC: 31.3 µg/mL (≈ 70.4 µM)
  MIC: 3.9 µg/mL (≈ 8.78 µM)
  MIC50: 3.91 µg/mL (≈ 8.8 µM)
  MIC90: 7.81 µg/mL (≈ 17.6 µM)

## CCCCCCCCCCCCCCCCCC(=O)NCC(=O)N1CC(O)CC1C(=O)N[C@@H](CCCCN)C(=O)O (some centres undefined)
[29]
  Activity: Active
[10]
  Activity: Active
[30]
  Activity: Active
[13]
  Activity: Active
[31]
  Activity: Active

## CSCC[C@H](NC(=O)C1CC(O)CN1C(=O)CN)C(=O)N[C@@H](CCCCN)C(=O)O (some centres undefined) (H-G[ξHyp]MK-OH)
[1]
  Activity: inactive
[10]
  Activity: Active
[2]
  Activity: Active

## NC[C@H]1O[C@H](O[C@H]2[C@H](O)[C@@H](O[C@H]3O[C@H](CO)[C@@H](O)[C@H](N)[C@H]3O)[C@H](N)C[C@@H]2N)[C@H](O)[C@@H](O)[C@@H]1O [KANAMYCIN]
[24]
  MBC50: 3.9 µg/mL (≈ 8.05 µM)
  MBC90: 7.8 µg/mL (≈ 16.1 µM)
[24]; [35]
  MBC: 11.7 µg/mL (≈ 24.1 µM)
  MIC: 2.9 µg/mL (≈ 5.99 µM)
  MIC50: 2.9 µg/mL (≈ 5.99 µM)
  MIC90: 5.8 µg/mL (≈ 12 µM)
[25]
  MBC50: 15.6 µg/mL (≈ 32.2 µM)
  MBC90: 31.3 µg/mL (≈ 64.6 µM)
[25]; [36]
  MBC: 7.8 µg/mL (≈ 16.1 µM)
  MIC: 3.9 µg/mL (≈ 8.05 µM)
  MIC50: 7.8 µg/mL (≈ 16.1 µM)
  MIC90: 15.6 µg/mL (≈ 32.2 µM)
[26]
  MBC50: 15.6 µg/mL (≈ 32.2 µM)
  MBC90: 31.3 µg/mL (≈ 64.6 µM)
[26]; [37]
  MBC: 7.8 µg/mL (≈ 16.1 µM)
  MIC: 3.9 µg/mL (≈ 8.05 µM)
  MIC50: 7.8 µg/mL (≈ 16.1 µM)
  MIC90: 15.6 µg/mL (≈ 32.2 µM)
[28]
  MBC50: 3.9 µg/mL (≈ 8.05 µM)
  MBC90: 7.8 µg/mL (≈ 16.1 µM)
[28]; [38]
  MBC: 11.7 µg/mL (≈ 24.1 µM)
  MIC: 2.9 µg/mL (≈ 5.99 µM)
  MIC50: 2.9 µg/mL (≈ 5.99 µM)
  MIC90: 5.8 µg/mL (≈ 12 µM)

## CCCCCCCCCCCCCCCC(=O)NCC(=O)N1CC(O)CC1C(=O)N[C@@H](CCCCN)C(=O)O (some centres undefined) (Palmitoyl-Gly-[ξHyp]-Lys-OH)
[19]
  Activity: Active
[32]
  Activity: Active
[33]
  Activity: Active
[15]
  Activity: Active
[10]
  Activity: Active
[17]
  Activity: Active
[13]
  Activity: Active
